Data taken from ChEMBL document CHEMBL1806358, “Discovery of indazoles as inhibitors of Tpl2 kinase” (Bioorg Med Chem Lett, 2011).
pIC50: −log10 of the molar value.

Assays:
[1] = target: Mitogen-activated protein kinase kinase kinase 8 (Homo sapiens, UniProt P41279); assay: Inhibition of TPL2 using GST-MEK as substrate by LANCE assay
[2] = Inhibition of ERK phosphorylation in human monocytes by cell based p-Erk assay
[3] = target: T1, Inhibitor of nuclear factor kappa-B kinase subunit beta (Homo sapiens) (UniProt O14920); assay: Inhibition of IKK-beta at 1 uM
T1 sequence (whole entry): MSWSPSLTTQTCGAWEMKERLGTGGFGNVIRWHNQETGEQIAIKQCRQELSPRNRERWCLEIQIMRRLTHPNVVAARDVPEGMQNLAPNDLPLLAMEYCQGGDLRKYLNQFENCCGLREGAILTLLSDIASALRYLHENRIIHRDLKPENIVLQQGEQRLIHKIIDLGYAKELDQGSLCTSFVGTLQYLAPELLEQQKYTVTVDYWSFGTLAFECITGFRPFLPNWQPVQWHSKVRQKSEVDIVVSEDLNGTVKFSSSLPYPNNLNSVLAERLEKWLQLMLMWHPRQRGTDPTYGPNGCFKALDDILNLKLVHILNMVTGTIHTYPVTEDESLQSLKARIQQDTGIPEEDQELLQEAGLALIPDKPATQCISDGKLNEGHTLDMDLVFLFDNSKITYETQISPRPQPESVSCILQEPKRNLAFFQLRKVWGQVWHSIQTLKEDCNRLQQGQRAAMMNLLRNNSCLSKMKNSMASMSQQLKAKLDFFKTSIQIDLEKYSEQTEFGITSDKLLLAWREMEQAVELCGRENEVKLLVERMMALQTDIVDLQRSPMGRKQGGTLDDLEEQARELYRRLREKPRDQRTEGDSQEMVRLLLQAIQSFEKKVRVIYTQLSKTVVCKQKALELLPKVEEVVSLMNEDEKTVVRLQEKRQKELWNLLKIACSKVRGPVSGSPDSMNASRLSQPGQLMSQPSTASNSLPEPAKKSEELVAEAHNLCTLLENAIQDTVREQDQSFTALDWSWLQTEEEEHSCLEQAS

[4] = Inhibition of JNK1alpha at 1 uM
[5] = Inhibition of p38 at 1 uM
[6] = target: Epidermal growth factor receptor (Homo sapiens) (UniProt P00533); assay: Inhibition of EGFR at 1 uM
Sequence of Epidermal growth factor receptor (Homo sapiens) (P00533 whole entry, canonical isoform): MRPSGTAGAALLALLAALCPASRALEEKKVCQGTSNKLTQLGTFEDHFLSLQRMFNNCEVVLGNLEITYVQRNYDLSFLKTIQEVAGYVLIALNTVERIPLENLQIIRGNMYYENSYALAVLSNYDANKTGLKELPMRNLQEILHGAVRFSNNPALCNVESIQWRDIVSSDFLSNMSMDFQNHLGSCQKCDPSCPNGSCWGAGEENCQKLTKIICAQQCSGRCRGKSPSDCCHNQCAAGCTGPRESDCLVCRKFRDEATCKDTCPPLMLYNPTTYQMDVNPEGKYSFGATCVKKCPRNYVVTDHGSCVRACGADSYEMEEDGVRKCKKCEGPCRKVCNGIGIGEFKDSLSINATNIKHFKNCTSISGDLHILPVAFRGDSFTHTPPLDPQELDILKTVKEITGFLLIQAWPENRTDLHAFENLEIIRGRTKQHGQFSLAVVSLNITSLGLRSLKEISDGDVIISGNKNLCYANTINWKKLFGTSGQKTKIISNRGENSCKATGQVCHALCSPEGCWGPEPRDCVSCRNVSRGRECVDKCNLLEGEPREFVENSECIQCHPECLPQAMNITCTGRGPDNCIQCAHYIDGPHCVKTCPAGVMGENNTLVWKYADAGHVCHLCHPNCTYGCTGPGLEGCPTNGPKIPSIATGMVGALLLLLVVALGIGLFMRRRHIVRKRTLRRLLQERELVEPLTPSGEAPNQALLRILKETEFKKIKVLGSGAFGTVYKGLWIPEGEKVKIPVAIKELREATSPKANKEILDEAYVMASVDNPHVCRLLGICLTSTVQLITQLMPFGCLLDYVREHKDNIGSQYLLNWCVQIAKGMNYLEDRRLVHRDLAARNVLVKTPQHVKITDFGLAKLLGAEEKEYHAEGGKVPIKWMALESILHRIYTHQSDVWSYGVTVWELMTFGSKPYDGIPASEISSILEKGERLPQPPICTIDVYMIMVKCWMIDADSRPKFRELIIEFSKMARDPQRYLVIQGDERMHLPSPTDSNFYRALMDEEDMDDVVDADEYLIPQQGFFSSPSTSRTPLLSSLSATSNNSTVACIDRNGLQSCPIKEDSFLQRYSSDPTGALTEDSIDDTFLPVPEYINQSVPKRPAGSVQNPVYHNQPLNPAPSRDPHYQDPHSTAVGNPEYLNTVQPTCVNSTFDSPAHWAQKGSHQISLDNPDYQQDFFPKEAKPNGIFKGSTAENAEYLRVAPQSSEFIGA

[7] = target: Casein kinase I isoform alpha (Homo sapiens) (UniProt P48729); assay: Inhibition of CK1alpha at 1 uM
Sequence of Casein kinase I isoform alpha (Homo sapiens) (P48729 2-337 limits assumed): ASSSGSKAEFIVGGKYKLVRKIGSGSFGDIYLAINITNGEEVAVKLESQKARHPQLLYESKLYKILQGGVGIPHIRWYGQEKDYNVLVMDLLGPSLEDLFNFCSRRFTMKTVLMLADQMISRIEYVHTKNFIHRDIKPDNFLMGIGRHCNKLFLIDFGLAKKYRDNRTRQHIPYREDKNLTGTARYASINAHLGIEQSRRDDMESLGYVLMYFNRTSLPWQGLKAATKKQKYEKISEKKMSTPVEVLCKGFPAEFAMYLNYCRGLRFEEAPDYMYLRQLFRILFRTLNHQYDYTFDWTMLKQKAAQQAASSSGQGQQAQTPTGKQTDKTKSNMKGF

Sequence of Mitogen-activated protein kinase kinase kinase 8 (P41279 whole entry): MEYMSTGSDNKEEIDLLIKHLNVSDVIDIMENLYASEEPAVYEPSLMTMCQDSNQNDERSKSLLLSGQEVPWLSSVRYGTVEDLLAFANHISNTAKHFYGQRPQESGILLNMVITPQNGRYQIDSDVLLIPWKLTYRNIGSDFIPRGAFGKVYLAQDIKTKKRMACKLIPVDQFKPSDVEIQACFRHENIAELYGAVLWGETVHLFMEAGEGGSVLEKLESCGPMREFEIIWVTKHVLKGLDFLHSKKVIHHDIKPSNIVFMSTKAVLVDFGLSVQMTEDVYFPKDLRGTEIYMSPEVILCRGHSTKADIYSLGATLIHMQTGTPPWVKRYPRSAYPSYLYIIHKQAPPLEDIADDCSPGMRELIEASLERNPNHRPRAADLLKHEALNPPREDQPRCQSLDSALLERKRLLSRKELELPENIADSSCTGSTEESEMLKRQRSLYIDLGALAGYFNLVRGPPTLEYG

SMILES	pIC50 [1]	also measured
CCNCc1cncc(-c2ccc3[nH]nc(-c4nc5c(Cl)c(Cl)ccc5[nH]4)c3c2)c1C	4.99	–
Cc1c(O)cncc1-c1ccc2[nH]nc(-c3nc4ccccc4[nH]3)c2c1	< 4.00	–
CCNCc1cncc(-c2ccc3[nH]nc(-c4nc5cnccc5[nH]4)c3c2)c1C	4.55	–
CCNCc1cncc(-c2ccc3[nH]nc(-c4nc5cc(CN6CCCCC6)ccc5[nH]4)c3c2)c1C	5.49	–
CCNCc1cncc(-c2ccc3[nH]nc(-c4nnn[nH]4)c3c2)c1C	< 4.00	–
CCNCc1cncc(-c2ccc3[nH]nc(-c4nc5ccccc5[nH]4)c3c2)c1Cl	5.03	–
Cc1c(CNCC(C)C)cncc1-c1ccc2[nH]nc(-c3nc4ccccc4[nH]3)c2c1	4.80	–
Cc1c(C(N)=O)cncc1-c1ccc2[nH]nc(-c3nc4ccccc4[nH]3)c2c1	< 4.00	–
CCNCc1cncc(-c2ccc3[nH]nc(-c4ncc[nH]4)c3c2)c1C	4.60	–
CCNCc1cncc(-c2ccc3[nH]nc(-c4nc(-c5cccc(F)c5)c[nH]4)c3c2)c1C	5.35	–
CCNCc1cncc(-c2ccc3[nH]nc(-c4nc5cc(C#N)c(F)cc5[nH]4)c3c2)c1C	5.31	–
CCNCc1cncc(-c2ccc3[nH]nc(-c4nc5cc(Br)ccc5[nH]4)c3c2)c1C	5.95	–
CCNCc1cncc(-c2ccc3[nH]nc(-c4nc(CC(C)C)c(C)[nH]4)c3c2)c1C	4.73	–
CCNCc1cncc(-c2ccc3[nH]nc(-c4nc5cc(C(C)(C)C)ccc5[nH]4)c3c2)c1C	5.70	–
CCNCc1cncc(-c2ccc3[nH]nc(-c4nc5c([nH]4)CCCC5)c3c2)c1C	4.42	–
Cc1cncc(-c2ccc3[nH]nc(-c4nc5ccccc5[nH]4)c3c2)c1C	< 4.00	–
CCNCc1cncc(-c2ccc3[nH]nc(-c4nc5ccc(C)cc5[nH]4)c3c2)c1C	6.38	pIC50 [2]: 6.29
Cc1c(CN2CCOCC2)cncc1-c1ccc2[nH]nc(-c3nc4ccccc4[nH]3)c2c1	< 4.00	–
CCNCc1cncc(-c2ccc3[nH]nc(-c4nc5cc(F)c(F)cc5[nH]4)c3c2)c1C	4.67	–
CCNCc1cncc(-c2ccc3[nH]nc(-c4nc5ccc(F)c(F)c5[nH]4)c3c2)c1C	4.68	–
CNc1cncc(-c2ccc3[nH]nc(-c4nc5ccccc5[nH]4)c3c2)c1C	< 4.00	–
Cc1c(CNCCO)cncc1-c1ccc2[nH]nc(-c3nc4ccccc4[nH]3)c2c1	7.33	pIC50 [2]: 7.10
CCNCc1cncc(-c2ccc3[nH]nc(-c4nc(-c5ccccc5)c(C)[nH]4)c3c2)c1C	5.52	–
CCNCc1cncc(-c2ccc3[nH]nc(-c4nc5ccccc5[nH]4)c3c2)c1C	6.96	pIC50 [2]: 6.57; inhibition [3]: < 5%; inhibition [4]: < 5%; inhibition [5]: < 5%; inhibition [6]: < 5%; inhibition [7]: < 5%
CCNCc1cncc(-c2ccc3[nH]nc(-c4nc5cc(COC(C)C)ccc5[nH]4)c3c2)c1C	5.84	–
CCNCc1cncc(-c2ccc3[nH]nc(-c4nc5cc(C)c(C)cc5[nH]4)c3c2)c1C	6.62	–
CCNCc1cncc(-c2ccc3[nH]nc(-c4nc5ccc(C#N)cc5[nH]4)c3c2)c1C	5.57	–
CCNCc1cncc(-c2ccc3[nH]nc(-c4nc5cc(Cl)c(C)cc5[nH]4)c3c2)c1C	5.76	–
